Key:
[1] = target: Trametes versicolor glutathione transferase Omega 3S (TvGSTO3S) (Trametes versicolor); assay: crystal structure; TvGSTO3S (13 mg/mL) crystallised by microbatch under oil at 278 K; 30% (w/v) PEG 400, 0.2 M calcium acetate, 0.1 M acetate buffer pH 4.5; apo and ligand complexes; homodimer in the crystal
[2] = target: T1, TvGSTO6S (Trametes versicolor, UniProt A0A384E158); assay: thermal shift assay, SYPRO Orange; format: binding; conditions: 100 µM ligand, 10 µM protein, Tris-HCl pH 8
T1 construct: produced in E. coli Rosetta2 DE3 pLysS; homodimer; serine-type omega GST
T1 sequence (A0A384E158 1-246): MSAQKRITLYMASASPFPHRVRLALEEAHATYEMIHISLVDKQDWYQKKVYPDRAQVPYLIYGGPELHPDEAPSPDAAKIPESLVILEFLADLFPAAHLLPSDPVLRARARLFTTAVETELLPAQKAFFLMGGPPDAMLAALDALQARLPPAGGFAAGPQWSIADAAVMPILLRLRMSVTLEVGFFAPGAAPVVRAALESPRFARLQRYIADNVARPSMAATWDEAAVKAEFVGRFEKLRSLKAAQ
Description: thermal shift assay, SYPRO Orange on TvGSTO6S

[3] = target: T2, TvGSTO2S (Trametes versicolor, UniProt A0A452CSY5); assay: thermal shift assay, SYPRO Orange; format: binding; conditions: 100 µM ligand, 10 µM protein, Tris-HCl pH 8
T2 construct: gene TRAPUB_12770; produced in E. coli Rosetta2 DE3 pLysS
T2 sequence (A0A452CSY5 1-239): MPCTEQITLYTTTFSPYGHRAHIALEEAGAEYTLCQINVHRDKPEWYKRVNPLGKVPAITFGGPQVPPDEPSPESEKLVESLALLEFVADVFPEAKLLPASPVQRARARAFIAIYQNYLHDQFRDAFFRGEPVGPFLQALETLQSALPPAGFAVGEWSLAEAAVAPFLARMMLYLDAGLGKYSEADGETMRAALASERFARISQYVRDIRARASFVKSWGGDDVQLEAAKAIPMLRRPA
Description: thermal shift assay, SYPRO Orange on TvGSTO2S

[4] = target: T3, TvGSTO5S (Trametes versicolor, UniProt R7S6M8); assay: thermal shift assay, SYPRO Orange; format: binding; conditions: 100 µM ligand, 10 µM protein, Tris-HCl pH 8
T3 construct: gene TRAVEDRAFT_54358; produced in E. coli Rosetta2 DE3 pLysS
T3 sequence (R7S6M8 1-241): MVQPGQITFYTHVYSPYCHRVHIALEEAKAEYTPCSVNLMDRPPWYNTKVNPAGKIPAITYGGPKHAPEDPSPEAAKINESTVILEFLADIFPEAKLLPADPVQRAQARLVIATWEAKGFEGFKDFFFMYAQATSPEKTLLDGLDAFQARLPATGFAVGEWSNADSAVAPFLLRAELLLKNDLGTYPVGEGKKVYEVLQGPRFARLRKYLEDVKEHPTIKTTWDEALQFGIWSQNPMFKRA
Description: thermal shift assay, SYPRO Orange on TvGSTO5S

[5] = target: T4, TvGSTO1S (Trametes versicolor, UniProt R7S9J3); assay: thermal shift assay, SYPRO Orange; format: binding; conditions: 100 µM ligand, 10 µM protein, Tris-HCl pH 8
T4 construct: gene TRAVEDRAFT_75639; produced in E. coli Rosetta2 DE3 pLysS
T4 sequence (R7S9J3 1-256): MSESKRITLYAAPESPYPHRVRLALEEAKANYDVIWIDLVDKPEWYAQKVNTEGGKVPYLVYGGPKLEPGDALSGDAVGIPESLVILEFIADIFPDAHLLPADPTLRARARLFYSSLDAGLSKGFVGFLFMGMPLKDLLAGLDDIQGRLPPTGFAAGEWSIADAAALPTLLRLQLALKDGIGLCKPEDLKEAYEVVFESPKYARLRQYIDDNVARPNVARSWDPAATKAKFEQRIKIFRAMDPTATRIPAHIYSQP
Description: thermal shift assay, SYPRO Orange on TvGSTO1S

[6] = target: T5, TvGSTO3S (Trametes versicolor, UniProt A0A384E145); assay: inhibition of GSH-transferase activity, mixed model fit; format: biochemical; conditions: PEITC 25–300 µM as substrate, 1 mM GSH, 100 mM phosphate pH 6.4, 25 °C
T5 construct: produced in E. coli Rosetta2 DE3 pLysS; homodimer; serine-type omega GST
T5 sequence (A0A384E145 1-240): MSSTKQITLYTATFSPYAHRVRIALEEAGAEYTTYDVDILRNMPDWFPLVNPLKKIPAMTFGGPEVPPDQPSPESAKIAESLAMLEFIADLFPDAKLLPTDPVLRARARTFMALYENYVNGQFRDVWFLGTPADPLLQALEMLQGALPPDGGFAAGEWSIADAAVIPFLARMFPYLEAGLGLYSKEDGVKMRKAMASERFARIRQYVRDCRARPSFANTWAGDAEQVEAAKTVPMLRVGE

[7] = target: Trametes versicolor glutathione transferase Omega 6S (TvGSTO6S) (Trametes versicolor); assay: crystal structure; TvGSTO6S (26 mg/mL) crystallised by hanging drop with seeding; 25% (w/v) PEG 1500, 0.1 M MMT buffer pH 6.5; apo and naringenin complex ('dry soaking'); homodimer in the crystal

**Q.** With “Trametes versicolor glutathione transferase Omega 3S (TvGSTO3S) (enzyme)” as the molecule, how does the stoichiometry N [1] read?
**A.** The stoichiometry N was 2.

**Q.** How did the TvGSTO6S [2] turn out when `O=C(c1ccccc1)c1ccc(O)c(O)c1O` [2,3,4-Trihydroxy benzophenone] was run?
**A.** The TvGSTO6S was 4.15 °C.

**Q.** And the TvGSTO2S [3]?
**A.** The TvGSTO2S was 2.92 °C.

**Q.** And the TvGSTO5S [4]?
**A.** Its TvGSTO5S is -12.89 °C.

**Q.** How did the TvGSTO1S [5] turn out when `O=C(c1ccc(O)cc1)c1ccc(O)cc1O` [2,4,4′-Trihydroxy benzophenone] was run?
**A.** The TvGSTO1S was 2.74 °C.

**Q.** Which results are given for `O=C(c1ccc(O)cc1O)c1ccc(O)cc1O` [2,2′,4,4′-Tetrahydroxy benzophenone]?
**A.** TvGSTO1S [5]: 3.74 °C; TvGSTO6S [2]: 3.40 °C

**Q.** For `O=C(c1ccccc1)c1ccc(O)cc1O` [2,4-Dihydroxy benzophenone], which TvGSTO2S [3] is on record?
**A.** Its TvGSTO2S is 2.56 °C.

**Q.** How did the Ki [6] turn out when `COc1c(O)cc(O)c2c(=O)cc(-c3ccccc3)oc12` [wogonin] was run?
**A.** The Ki was 2890 ± 1240 nM.

**Q.** With “Trametes versicolor glutathione transferase Omega 6S (TvGSTO6S) (enzyme)” as the molecule, how does the stoichiometry N [7] read?
**A.** Its stoichiometry N is 2.
